Test results: PubChem BioAssay AID248 (DTP/NCI, 2004)
Where “and” joins values, the source holds several entries; their conditions need not be identical. Equal values may be shown once. Toxic doses and inconclusive results are not listed. No stated cut-off is given here; in the data, active means T/C of 150% or more; inactive means T/C below 125%.

System: L1210 leukemia ip in BDF1 mice, survival T/C
Assay: NCI In Vivo Anticancer Drug Screen. Data for tumor model L1210 Leukemia (intraperitoneal) in B6D2F1 (BDF1) mice
Settings: endpoint: mean survival time, higher = longer survival
Procedure, shortened: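 Transplanted-tumor mice were given test agent; controls received vehicle only. Survival readings from the two groups were divided (treated over control).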

[1] = dose: 100.0 mg/kg/injection, schedule: Q01DX009 (ip), vehicle: Klucel (hydroxypropylcellulose) (HPC)
[2] = dose: 100.0 mg/kg/injection, schedule: Q04DX003 (ip), vehicle: saline
[3] = dose: 200.0 mg/kg/injection, schedule: Q04DX003 (ip), vehicle: saline
[4] = dose: 400.0 mg/kg/injection, schedule: Q04DX003 (ip), vehicle: saline
[5] = dose: 75.0 mg/kg/injection, schedule: Q01DX001 (ip), vehicle: saline
[6] = dose: 150.0 mg/kg/injection, schedule: Q01DX001 (ip), vehicle: saline
[7] = dose: 100.0 mg/kg/injection, schedule: Q01DX009 (ip), vehicle: saline with Tween-80
[8] = dose: 200.0 mg/kg/injection, schedule: Q01DX009 (ip), vehicle: saline with Tween-80
[9] = dose: 400.0 mg/kg/injection, schedule: Q01DX009 (ip), vehicle: saline with Tween-80
[10] = dose: 100.0 mg/kg/injection, schedule: Q04DX003 (ip), vehicle: saline with Tween-80
[11] = dose: 200.0 mg/kg/injection, schedule: Q04DX003 (ip), vehicle: saline with Tween-80
[12] = dose: 400.0 mg/kg/injection, schedule: Q04DX003 (ip), vehicle: saline with Tween-80
[13] = dose: 100.0 mg/kg/injection, schedule: Q04DX002 (ip), vehicle: saline
[14] = dose: 200.0 mg/kg/injection, schedule: Q04DX002 (ip), vehicle: saline
[15] = dose: 200.0 mg/kg/injection, schedule: Q01DX009 (ip), vehicle: Klucel (hydroxypropylcellulose) (HPC)
[16] = dose: 400.0 mg/kg/injection, schedule: Q01DX009 (ip), vehicle: Klucel (hydroxypropylcellulose) (HPC)

Measured: T/C

CC(CNC(=O)CCOS(C)(=O)=O)CNC(=O)CCOS(C)(=O)=O
inactive: dose: 100.0 mg/kg/injection, schedule: Q01DX001 (ip), vehicle: carboxymethylcellulose (CMC) 115 % of control | dose: 100.0 mg/kg/injection, schedule: Q04DX003 (ip), vehicle: other 105 % of control | dose: 132.0 mg/kg/injection, schedule: Q01DX009 (ip), vehicle: other 113 % of control | dose: 200.0 mg/kg/injection, schedule: Q01DX001 (ip), vehicle: carboxymethylcellulose (CMC) 107 % of control | dose: 200.0 mg/kg/injection, schedule: Q01DX009 (ip), vehicle: other 122 % of control | dose: 200.0 mg/kg/injection, schedule: Q04DX003 (ip), vehicle: other 121 % of control | dose: 264.0 mg/kg/injection, schedule: Q04DX003 (ip), vehicle: saline 114 % of control | dose: 400.0 mg/kg/injection, schedule: Q01DX001 (ip), vehicle: carboxymethylcellulose (CMC) 120 % of control

O/N=C\c1ccccc1
inactive: dose: 50.0 mg/kg/injection, schedule: Q01DX009 (ip), vehicle: Klucel (hydroxypropylcellulose) (HPC) 92 % of control | [1] 86 % of control

COCCCn1nnc2ccccc2c1=O
inactive: [2] 98 % of control | [3] 93 % of control | [4] 100 % of control

CN(C)C/C=C/COC(=O)C(C)(C)C
inactive: [5] 93 % of control | [6] 97 % of control | dose: 300.0 mg/kg/injection, schedule: Q01DX001 (ip), vehicle: saline 87 % of control

CCCCOC(=O)c1ccc(OC(=O)NC)cc1
inactive: [7] 107 % of control | [8] 101 % of control | [9] 112 % of control

N=C(N)CSSCC(=N)N
inactive: dose: 12.5 mg/kg/injection, schedule: Q04DX003 (ip), vehicle: carboxymethylcellulose (CMC) 92 % of control | dose: 25.0 mg/kg/injection, schedule: Q04DX003 (ip), vehicle: carboxymethylcellulose (CMC) 98 % of control | dose: 50.0 mg/kg/injection, schedule: Q04DX003 (ip), vehicle: carboxymethylcellulose (CMC) 98 % of control

O=C(O)C(F)(F)C(F)(Cl)C(F)(F)C(F)(Cl)C(F)(F)C(F)(Cl)C(F)(F)Cl (configuration not stated) (tested in a mixture with another compound)
inactive: [2] 90 % of control | [3] 101 % of control | [4] 101 % of control

CCCCn1cnc2c(SC3CCCC3)ncnc21
inactive: dose: 100.0 mg/kg/injection, schedule: Q01DX001 (ip), vehicle: other 98 % of control | dose: 200.0 mg/kg/injection, schedule: Q01DX001 (ip), vehicle: other 96 % of control | dose: 400.0 mg/kg/injection, schedule: Q01DX001 (ip), vehicle: other 93 % of control

CC(C)OC(=S)SSc1nc2ccccc2s1
inactive: dose: 50.0 mg/kg/injection, schedule: Q01DX009 (ip), vehicle: saline with Tween-80 103 % of control | [7] 92 % of control | [10] 90 % of control | [8] 96 % of control | [11] 96 % of control

CCOP(=O)(/C=C/c1ccccc1)OCC
inactive: [2] 109 % of control | [3] 98 % of control | [4] 87 % of control

O=C(O)Cc1ccccc1
inactive: dose: 18.75 mg/kg/injection, schedule: Q01DX009 (ip), vehicle: acetone 95 % of control | dose: 37.5 mg/kg/injection, schedule: Q01DX009 (ip), vehicle: acetone 90 % of control | dose: 37.5 mg/kg/injection, schedule: Q04DX003 (ip), vehicle: acetone 96 % of control | dose: 75.0 mg/kg/injection, schedule: Q01DX001 (ip), vehicle: carboxymethylcellulose (CMC) 96 % of control | [5] 95 % of control | dose: 75.0 mg/kg/injection, schedule: Q01DX009 (ip), vehicle: acetone 90 % of control | dose: 75.0 mg/kg/injection, schedule: Q04DX003 (ip), vehicle: acetone 91 % of control | dose: 150.0 mg/kg/injection, schedule: Q01DX001 (ip), vehicle: carboxymethylcellulose (CMC) 94 % of control | [6] 93 % of control | dose: 150.0 mg/kg/injection, schedule: Q04DX003 (ip), vehicle: acetone 98 % of control

O=C(Nc1ccccc1[N+](=O)[O-])OCCOc1ccccc1
inactive: dose: 100.0 mg/kg/injection, schedule: Q01DX001 (ip), vehicle: saline with Tween-80 98 % of control | [7] 103 % of control and 90 % of control | dose: 100.0 mg/kg/injection, schedule: Q04DX002 (ip), vehicle: saline with Tween-80 93 % of control and 95 % of control | [10] 97 % of control | dose: 200.0 mg/kg/injection, schedule: Q01DX001 (ip), vehicle: saline with Tween-80 91 % of control | [8] 100 % of control and 92 % of control | dose: 200.0 mg/kg/injection, schedule: Q04DX002 (ip), vehicle: saline with Tween-80 98 % of control and 100 % of control | [11] 103 % of control | dose: 400.0 mg/kg/injection, schedule: Q01DX001 (ip), vehicle: saline with Tween-80 93 % of control | [9] 93 % of control and 90 % of control | dose: 400.0 mg/kg/injection, schedule: Q04DX002 (ip), vehicle: saline with Tween-80 104 % of control and 92 % of control | [12] 105 % of control

Cc1ncc(CO)c(COCCC(C)C)c1O
inactive: [13] 95 % of control | [14] 98 % of control

Cc1ccc(CC(C)(O)CC(C)(O)Cc2ccc(C)cc2)cc1 (configuration not stated)
inactive: [2] 100 % of control | [3] 93 % of control | [4] 93 % of control

CC12CCC(C(C(=O)C3C(=O)C4(C)CCC3C4(C)C)C1=O)C2(C)C (configuration not stated)
inactive: dose: 100.0 mg/kg/injection, schedule: Q01DX001 (ip), vehicle: Klucel (hydroxypropylcellulose) (HPC) 102 % of control | dose: 200.0 mg/kg/injection, schedule: Q01DX001 (ip), vehicle: Klucel (hydroxypropylcellulose) (HPC) 103 % of control | dose: 400.0 mg/kg/injection, schedule: Q01DX001 (ip), vehicle: Klucel (hydroxypropylcellulose) (HPC) 113 % of control

COC(=O)c1ccc(O)cc1
inactive: [13] 96 % of control | [14] 100 % of control | dose: 400.0 mg/kg/injection, schedule: Q04DX002 (ip), vehicle: saline 100 % of control

Cc1ccc(C(=O)C2CC2)c(C)c1
inactive: [7] 105 % of control | [10] 96 % of control | [8] 98 % of control | [11] 95 % of control | [9] 109 % of control | [12] 93 % of control

CNC(=O)Nc1c(C)cccc1Cl
inactive: [1] 94 % of control | [15] 95 % of control | [16] 105 % of control

CCCCCCCc1nc(/N=N/N(C)C)c(C(N)=O)[nH]1
inactive: [10] 101 % of control | [8] 91 % of control | [11] 98 % of control | [12] 110 % of control

OCC1=C(CO)C2(Cl)C(Cl)=C(Cl)C1(Cl)C2(Cl)Cl
inactive: [1] 100 % of control | [2] 105 % of control | [15] 105 % of control | [3] 100 % of control | [16] 88 % of control | [4] 98 % of control

O=C(N/N=C/c1ccc2c(c1)CCC2)c1cccs1
inactive: dose: 100.0 mg/kg/injection, schedule: Q04DX003 (ip), vehicle: Klucel (hydroxypropylcellulose) (HPC) 97 % of control | dose: 200.0 mg/kg/injection, schedule: Q04DX003 (ip), vehicle: Klucel (hydroxypropylcellulose) (HPC) 103 % of control | dose: 400.0 mg/kg/injection, schedule: Q04DX003 (ip), vehicle: Klucel (hydroxypropylcellulose) (HPC) 107 % of control

O=C(CC(O)(C(F)(F)F)C(F)(F)F)c1cccnc1
inactive: [1] 98 % of control | [10] 101 % of control | [15] 104 % of control | [11] 103 % of control | [16] 101 % of control | [12] 103 % of control
